From patent US20240228987A1, “HEXOKINASE-DERIVED PEPTIDES AND THERAPEUTICAL USES THEREOF” (INSERM (INSTITUT NATIONAL DE LA SANTÉ ET DE LA RECHERCHE …, priority 2021, published 2024)
Where a SMILES comes first, the peptide text is derived from it. Where no end group is shown, it is not given here. [ ]: non-standard residue; d: D form. The star is where a group is joined. X1 = CC(C)(C(=O)*)n1cc(-c2cccc(C(F)(F)F)c2)nn1; Nle = CCCC[C@H](N)C(=O)O; Aib = CC(C)(N)C(=O)O

Legend:
[1] = target: T1, VDAC (Homo sapiens, UniProt P21796); assay: in-cellulo screening assay: HEK-293 cells transfected with mitoGCaMP2, MJ-induced mitochondrial Ca2+ release through VDAC; type: cell-based; settings: for activity / affinity for VDAC on the screening assay (mitoGCaMP2 fluorescence): MJ 6 mM
T1 construct: HEK-293 cells, expressing VDAC and HK; endogenous in cells; host or cells: HEK-293 (ATCC), transfected only with the Ca2+ probes mitoGCaMP2 / GCaMP2
Protocol: The activity of the designed compounds was assessed on HEK-293 cells transfected with mitoGCaMP2. 40,000 cells per well were seeded in 96-well-microplates coated with Poly-D-Lysine (reference 655946, Greiner Bio-One, France) in 200 μl of DMEM supplemented with 10% FBS and 1% PS. 24 h after seeding, cells were transfected with 50 ng of mitoGCaMP2 plasmid per well using jet-PRIME reagent (Polyplus-transfection S.A, France) according to the manufacturer's recommendations. 48 h after transfection, a first measure of fluorescence was performed using the microplate reader CLARIOstar® (BMG Labtech, France). This measurement represented the basal level of Ca2+ into the mitochondria upon transfection. After a wash with 100 μl of PBS, cells were incubated with a mixture of pre-heated (37° C.) MJ at a final concentration of 6 mM and compounds at the indicated final concentrations in PBS containing 0.1% DMSO and 5% EtOH. After 35 min in a cell incubator, a second measure of fluorescence was performed using the microplate reader CLARIOstar®. This measure represented the level of mitochondrial Ca2+ according to the peptide activity. Compounds were tested in triplicates per microplates and in three or five independent experiments for each peptide. For dose effect curves, compounds were tested in triplicates per microplates and in three independent experiments. Results are expressed as the ratio between the second and first measures and normalized to the conditions without compounds containing only PBS with 0.1% DMSO and 5% EtOH. Results are expressed as the means±SD in histogram plots and dose response curves using GraphPad Prism software (version 8.0.1).
The biological screening of the peptide is based on the ability of methyl jasmonate (MJ) to binds and detaches HK-1 from mitochondrial VDAC in a time and dose dependent manner.^16,20 For this purpose, we developed an in-cellulo screening assay in which HEK-293 cells, expressing VDAC and HK,25 were transfected with GCaMP2, a cytoplasmic Ca2+-sensing probe, or with mitoGCaMP2, the same probe addressed to mitochondrial matrix. […] MJ that removes HK from VDAC was used to induce a Ca2+ release outside mitochondria measured through a drop in mitoGCaMP2 fluorescence and an increase in GCaMP2 fluorescence in cells.

[2] = test system: sciatic nerve explants; assay: sciatic nerve explant culture and CARS imaging (demyelination); type: cell-based, mouse; settings: 3 μM
Text: FIG. 11: Effects of NHKI-derived peptides 3c, 5x, 7d and 7g on sciatic nerve explants cultured in medium supplemented with serum. (A) Representative CARS images showing myelin (green) of an intact sciatic nerve collected and immediately fixed in 4% PFA and a sciatic nerve explant cultured in medium supplemented with FBS referred as negative control. (B) Representative CARS images showing myelin (green) of sciatic nerve explants cultured in medium supplemented with FBS containing NHKI-derived peptides at 3 μM for 24 h. All nerves are represented in longitudinal sections. Healthy myelin sheath (white arrows), Node of Ranvier (white stars) and myelin ovoids (orange arrows) are illustrated. Scale bar: 20 μm. (C) Graph showing the percentage of damaged fibers in intact nerves (white plot), negative controls (light grey plot), 3c and its analog 7d (blue plots) 5x and its analog 7g (red plots). (N=3 independent experiments). Results are expressed as means±SD. Statistical analysis using one-way ANOVA followed by Dunnett's multiple comparison tests. *p<0.05, **p<0.01. ns, non-significant.
Twelve-week-old C57BL6/J mice were euthanized using Pentobarbital (54.7 mg/ml, 100 mg/kg, Centravet, France). First, sciatic nerves were collected, washed in PBS and their epineurium was removed. Next, 5 mm long nerves were put in 24-well microplates (NUNC, Thermo Fisher Scientific, France) in 500 μl of DMEM supplemented with 1% PS and with or without 10% FBS containing the compounds at 3 μM containing 0.1% DMSO, and further incubated in a humidified chamber at 37° C. and 5% CO2. Negative controls consisted in sciatic nerve explant cultures without compounds (only DMEM supplemented with 1% PS, with or without 10% FBS and 0.1% DMSO). Intact sciatic nerves collected and immediately fixed in 4% PFA served as a control of healthy myelin sheath for CARS imaging. After 24 h in culture, sciatic nerve explants were washed three times with PBS and fixed for 1 h in 4% PFA aqueous solution (Electron Microscopy Sciences, Thermo Fisher Scientific, France) at room temperature. All CARS images were acquired with a two-photon microscope LSM 7 MP coupled to an OPO (Zeiss, France) complemented by a delay line. A ×20 water immersion objective (W Plan Apochromat DIC VIS-IR, Zeiss, France) was used for image acquisition. Each acquisition was conducted in three independent experiments. For each experiment, three ROIs per conditions were used to quantify the percentage of damaged fibers per field using Zen software (Zen 2.3 lite, Zeiss, France). Results are expressed as means±SD.
Next, we tested NHKI-derived compound activity on sciatic nerve explant cultures in which Schwann cells demyelinate through a mechanism involving mitochondrial Ca2+ release through VDAC1.44,45,9 Intact myelin was imaged and quantified in sciatic nerve explants using Coherent Anti-Stokes Raman Scattering (CARS) nonlinear microscopy. […] Demyelination was quantified by measuring the percentage of damaged fibers, i.e. displaying ovoid formation, over the total number of fibers imaged.

[3] = in-vitro metabolic stability in rat serum; type: in vitro ADME; settings: 25% (v/v) rat serum
Protocol: FIG. 10: Study of the stability of NHKI derived sequence (3c′, 7a′, 7d′, 7f′-g′) towards rat serum (N=3 independent experiments). All peptides were tested at a concentration of 66.6 μmol/L in presence of 25% (v/v) of rat serum and water after incubation at 37° C. for 24 h. Errors bars show the standard deviation.
For each peptide, a stock solution in DMSO was prepared at a 6.66 mmol/L concentration. 70 μL of the solution were taken out and added to 630 μL of MilliQ water to make an aqueous peptide solution (0.666 mmol/L). The reaction consisted in 325 μL of MilliQ water and 125 μL of non-diluted rat serum pre-incubated at 37° C. for about 10-15 min before addition of 50 μL the peptide solution at 0.666 mmol/L. The mixture was incubated at 37° C. with shaking at 1000 rpm. Aliquots (25 μL) were taken at different time points (0 min, 5 min, 15 min, 30 min, 1h, 2h, 3h, 5h, 7h, 24h, 48h) and enzymatic reaction was quenched with 225p L of MeOH to precipitate all serum proteins. The Eppendorf tube was directly centrifuged (14000 rpm) for 20 min at 4° C. to remove precipitated proteins by pelleting.

[4] = test system: Schwann cells; settings: cited from earlier work
[5] = target: Elastase (from porcine pancreas, EC 3.4.21.36) (Sus scrofa, UniProt P00772); settings: Tris·HCl buffer pH 8, 37° C., peptides without Tat
Protocol: A stock solution of Elastase at 1 mg/mL was prepared in Tris·HCl buffer (50 mM, pH 8, containing 0.5 mM CaCl2,). The stock solution was diluted at 0.94 mg/mL with 658 μL of stock solution in 42 μL of Tris·HCl buffer. All peptides were dissolved in DMSO to prepare a 6.66 mmol/L stock solution. A more diluted peptide solution (0.666 mmol/L) was prepared with 70 μL of stock solution in 630 μL of Tris·HCl buffer pH 8. In a 1.5 mL Eppendorf, 890 μL of Tris·HCl pH 8 was introduced followed by 100 μL of peptide solution (0.666 mmol/L) and incubated for 15 min at 37° C. prior to degradation. Then, 10 μL of Elastase solution (0.94 mg/mL) was added. The reaction mixture was incubated up to 4h at 37° C. with shaking at 1000 rpm. Aliquots (50 μL) were taken at different time points, quenched with 450 μL of MeOH, and centrifuged for 20 min (14000 rpm) at 4° C. The supernatant was transferred into an injection vial and analyzed by LC-MS with an eluting program of 0.1% formic acid in water and 0.1% formic acid in acetonitrile (see analytical data section). The relative concentrations of the remaining peptides and the cleavage products were calculated by integration of the corresponding peak in the HPLC chromatogram/MS trace. A control peptide solution was prepared without the enzyme. […] All proteolytic degradation experiments were carried out in triplicate.

[6] = compounds at 3 μM, compared with 3c, 4d or 5x
[7] = 24 h, medium supplemented with serum

T1 sequence (P21796 2-283): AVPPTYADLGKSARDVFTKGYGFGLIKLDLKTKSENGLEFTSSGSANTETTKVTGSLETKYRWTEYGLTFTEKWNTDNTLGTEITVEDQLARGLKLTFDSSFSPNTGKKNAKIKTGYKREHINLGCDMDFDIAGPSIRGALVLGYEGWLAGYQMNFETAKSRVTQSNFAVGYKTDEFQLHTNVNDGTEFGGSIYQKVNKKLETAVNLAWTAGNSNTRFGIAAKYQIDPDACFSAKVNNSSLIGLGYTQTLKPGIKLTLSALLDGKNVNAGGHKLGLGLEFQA
Elastase (from porcine pancreas, EC 3.4.21.36), sequence (P00772 27-266): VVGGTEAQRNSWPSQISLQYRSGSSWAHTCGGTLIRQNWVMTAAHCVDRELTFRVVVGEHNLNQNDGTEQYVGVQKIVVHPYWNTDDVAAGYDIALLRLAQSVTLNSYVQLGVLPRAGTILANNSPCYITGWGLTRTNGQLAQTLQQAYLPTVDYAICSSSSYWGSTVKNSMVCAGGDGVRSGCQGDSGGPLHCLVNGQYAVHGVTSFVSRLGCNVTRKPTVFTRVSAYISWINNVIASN

AQWLAYYYTELK [5m, tested peptide also contains Tat]
activity / affinity for VDAC on the screening assay (mitoGCaMP2 fluorescence) [1, 6]: equally accommodated

AQWLAYYLTELK [5l, tested peptide also contains Tat]
activity / affinity for VDAC on the screening assay (mitoGCaMP2 fluorescence) [1, 6]: beneficial effect

[Nle]IAAQLWAYYY [6o]
activity / affinity for VDAC on the screening assay (mitoGCaMP2 fluorescence) [1, 6]: equally accommodated

[Nle]IAAQWLAYYY [6m]
activity / affinity for VDAC on the screening assay (mitoGCaMP2 fluorescence) [1, 6]: equally accommodated

C[C@H](NC(=O)C(C)(C)n1cc(-c2cccc(C(F)(F)F)c2)nn1)C(=O)N[C@@H](CCC(N)=O)C(=O)N[C@@H](Cc1c[nH]c2ccccc12)C(=O)N[C@@H](Cc1c[nH]c2ccccc12)C(=O)NC(C)(C)C(=O)N[C@@H](Cc1ccc(O)cc1)C(=O)N[C@@H](Cc1ccc(O)cc1)C(=O)N[C@@H](Cc1ccccc1)C(=O)N[C@H](C(=O)N[C@@H](CCC(=O)O)C(=O)N[C@@H](Cc1c[nH]c2ccccc12)C(=O)N[C@@H](CCCCN)C(=O)NCC(=O)N[C@@H](CCCNC(=N)N)C(=O)N[C@@H](CCCCN)C(=O)N[C@@H](CCCCN)C(=O)N[C@@H](CCCNC(=N)N)C(=O)N[C@@H](CCCNC(=N)N)C(=O)N[C@@H](CCC(N)=O)C(=O)N[C@@H](CCCNC(=N)N)C(=O)N[C@@H](CCCNC(=N)N)C(=O)N[C@@H](CCCNC(=N)N)C(=O)N1CCC[C@H]1C(=O)N1CCC[C@H]1C(=O)N[C@@H](CCC(N)=O)C(N)=O)[C@@H](C)O [7g] (X1-AQWW[Aib]YYFTEWKGRKKRRQRRRPPQ-NH2; N-terminus assumed)
activity / affinity for VDAC on the screening assay (mitoGCaMP2 fluorescence) [1, 6]: significant higher activity
activity / affinity for VDAC on the screening assay (mitoGCaMP2 fluorescence) ([1]; compounds at 10 μM): significantly more active than compounds 3c and 5x
nerve fibers damage [2, 7]: significantly decreased nerve fibers damage
preservation of the myelin sheath [2, 7]: significantly preserve the myelin sheath at a similar level to an intact nerve
myelin sheath pattern ([2]; 24h, serum-free medium): same myelin sheath pattern as an intact nerve
percentage of damaged fibers ([2]; 24h, serum-free medium): significantly reduced the level of damaged fibers

AQWWAYYFTEWK [5x, tested peptide also contains Tat]
activity / affinity for VDAC on the screening assay (mitoGCaMP2 fluorescence) [1, 6]: more significant
percentage of damaged fibers ([2]; 24h, serum-free medium): significantly reduced the level of damaged fibers

Ac-AQLLAYYFTELKGRKKRRQRRRPPQ-NH2 [3c]
remaining at 5 min, 66.6 µmol/L ([3]; 25% rat serum, after 5 min, preliminary experiment, read-out: remaining peptide in rat serum): 10%
percentage of damaged fibers ([2]; 24h, serum-free medium): same percentage of damaged fibers as the negative control

CC(C)CCC[C@@H](C)[C@H]1CC[C@H]2[C@@H]3CCC4=CC(=NO)CC[C@]4(C)[C@H]3CC[C@]12C [olesoxime]
demyelination [4]: block demyelination
mitochondrial calcium release [4]: prevent mitochondrial calcium release

[Nle]IAAQWWAYYL [6q]
activity / affinity for VDAC on the screening assay (mitoGCaMP2 fluorescence) [1, 6]: more significant

C[C@H](NC(=O)[C@H](Cc1c[nH]c2ccccc12)NC(=O)[C@H](Cc1c[nH]c2ccccc12)NC(=O)[C@H](CCC(N)=O)NC(=O)[C@H](C)NC(=O)C(C)(C)n1cc(-c2cccc(C(F)(F)F)c2)nn1)C(=O)N[C@@H](Cc1ccc(O)cc1)C(=O)N[C@@H](Cc1ccc(O)cc1)C(=O)N[C@@H](Cc1ccccc1)C(=O)N[C@H](C(=O)N[C@@H](CCC(=O)O)C(=O)N[C@@H](Cc1c[nH]c2ccccc12)C(=O)N[C@@H](CCCCN)C(=O)NCC(=O)N[C@@H](CCCNC(=N)N)C(=O)N[C@@H](CCCCN)C(=O)N[C@@H](CCCCN)C(=O)N[C@@H](CCCNC(=N)N)C(=O)N[C@@H](CCCNC(=N)N)C(=O)N[C@@H](CCC(N)=O)C(=O)N[C@@H](CCCNC(=N)N)C(=O)N[C@@H](CCCNC(=N)N)C(=O)N[C@@H](CCCNC(=N)N)C(=O)N1CCC[C@H]1C(=O)N1CCC[C@H]1C(=O)N[C@@H](CCC(N)=O)C(N)=O)[C@@H](C)O [7f] (X1-AQWWAYYFTEWKGRKKRRQRRRPPQ-NH2)
IC50 [1]: 2.6 ± 0.6 µM
stability towards elastase [5]: most stable compound

CC(=O)N[C@@H](C)C(=O)N[C@@H](CCC(N)=O)C(=O)N[C@@H](CC(C)C)C(=O)N[C@@H](CC(C)C)C(=O)NC(C)(C)C(=O)N[C@@H](Cc1ccc(O)cc1)C(=O)N[C@@H](Cc1ccc(O)cc1)C(=O)N[C@@H](Cc1ccccc1)C(=O)N[C@H](C(=O)N[C@@H](CCC(=O)O)C(=O)N[C@@H](CC(C)C)C(=O)N[C@@H](CCCCN)C(N)=O)[C@@H](C)O [7a′] (Ac-AQLL[Aib]YYFTELK-NH2; N-terminus and C-terminus assumed)
remaining at 24 h, 66.6 µmol/L ([3]; 37° C., after 24 h, read-out: remaining compound in rat serum): ~65%
stability towards elastase [5]: improve their stability towards elastase

CC(=O)N[C@@H](C)C(=O)NC(C)(C)C(=O)N[C@@H](C)C(=O)NC(C)(C)C(=O)N[C@@H](C)C(=O)N[C@@H](CCC(N)=O)C(=O)N[C@@H](CC(C)C)C(=O)N[C@@H](CC(C)C)C(=O)NC(C)(C)C(=O)N[C@@H](Cc1ccc(O)cc1)C(=O)N[C@@H](Cc1ccc(O)cc1)C(=O)N[C@@H](Cc1ccccc1)C(=O)N[C@H](C(=O)N[C@@H](CCC(=O)O)C(=O)N[C@@H](CC(C)C)C(=O)N[C@@H](CCCCN)C(N)=O)[C@@H](C)O [7d′] (Ac-A[Aib]A[Aib]AQLL[Aib]YYFTELK-NH2; N-terminus and C-terminus assumed)
stability towards elastase [5]: improve their stability towards elastase

CCCC[C@H](NC(=O)[C@H](CCC(N)=O)NC(=O)[C@@H]1CCCN1C(=O)[C@@H]1CCCN1C(=O)[C@H](CCCNC(=N)N)NC(=O)[C@H](CCCNC(=N)N)NC(=O)[C@H](CCCNC(=N)N)NC(=O)[C@H](CCC(N)=O)NC(=O)[C@H](CCCNC(=N)N)NC(=O)[C@H](CCCNC(=N)N)NC(=O)[C@H](CCCCN)NC(=O)[C@H](CCCCN)NC(=O)[C@H](CCCNC(=N)N)NC(=O)CNC(C)=O)C(=O)N[C@H](C(=O)N[C@@H](C)C(=O)N[C@@H](C)C(=O)N[C@@H](CCC(N)=O)C(=O)N[C@@H](CC(C)C)C(=O)N[C@@H](CC(C)C)C(=O)N[C@@H](C)C(=O)N[C@@H](Cc1ccc(O)cc1)C(=O)N[C@@H](Cc1ccc(O)cc1)C(=O)N[C@@H](Cc1ccccc1)C(=O)N[C@H](C(=O)N[C@@H](CCC(=O)O)C(=O)N[C@@H](CC(C)C)C(=O)N[C@@H](CCCCN)C(N)=O)[C@@H](C)O)[C@@H](C)CC [2a]
IC50 [1]: 13.9 ± 3.1 µM

AQLWAYYYTEWK [5t, tested peptide also contains Tat]
activity / affinity for VDAC on the screening assay (mitoGCaMP2 fluorescence) [1, 6]: beneficial effect
